In US20040170653A1, “Tumour peptide antigen produced from human mdm2 proto-oncogene” (priority 2001, published 2004):
Where two headings read alike, the source gives them in different places.

How the values were obtained:
T2 cells = experiment: Cytotoxicity test (51Cr release) of hdm2 81-88-specific CTL on peptide-loaded T2 target cells (peptide titration, peptide specificity); type: cell-based, human; conditions: for absolute maximal lysis: peptide titration
[1] = tested on: tyrosinase-specific CTL clone IVSB; experiment: CTL recognition of antigen-activated T cells, 6-hour cytotoxicity test; type: cell-based, human; conditions: cells loaded with peptide 10 μM
Experimental: FIG. 22: Absence of substantial recognition of antigen-activated T cells. CTL A2 81, CTL CD8×A2 K^b 81, allo-A2.1-reactive CTL and CTL CD8×A2 K^b Flu M1 were tested as effector cells under the E:T ratios indicated in a 6-hour cytotoxicity test against tyrosinase-specific CTL clone IVSB (●) and the same cells loaded with hdm2 81-88 peptide (10 μM) (▴). The target cells were treated with the anti-A2.1 monoclonal antibody PA2.1 as shown (∘).
An A2.1-positive CTL clone “IVSB” having specificity for the tyrosinase peptide 369-377 was produced and made available using technically customary methods.
The lytic reactivity of the effector cells against various target cells was checked in a ^51Cr release test (Theobald et al., 1995). T2 and T2A2 K^b cells were employed as target cells for peptide titration tests. 1-5 Mio target cells were labeled for 60-90 min with 150 μCi of Na (^51Cr) 04 (1 mCi/ml) (NEN Life Science, Belgium). […] The cells were then centrifuged off (1300 rpm, 5° C., 9 min), the supernatant (0.1 ml/well) was taken off and the ^51Cr release was measured using a gamma-“counter” (Canberra Packard, Dreieich). The percentage specific lysis (SL) was calculated according to the following formula: [formula] […]

PBMC = experiment: CTL recognition of resting lymphohemopoietic cells, 6-hour cytotoxicity test; type: cell-based; conditions: cells loaded with peptide 10 μM
HLA-A2.1 = HLA-A2.1 (Homo sapiens, UniProt P04439, D140Y/D185E/D98H/E176V/E277Q/G131W/G231S/I119V/I121R/I166T/I218V/L300P/L318F/N151K/N90K/P208A/P217A/Q86G/Q94H/R138H/R169H/T345S); experiment: Competition test: inhibition of A2.1 binding of peptide p53 264-272, read as p53-specific CTL lysis of loaded EA2 cells; conditions: for inhibition of the A2.1 binding of the competing peptide p53 264-272: EA2 cells with 0.01 μg p53 264-272, 4-hour test; for A2.1-binding activity (in words): competitive binding test
EL4 cells (H-2^b) = experiment: Cytotoxicity test of hdm2 81-88-specific CTL on peptide-loaded A2.1-negative EL4 cells (A2.1 restriction); type: cell-based, mouse
resting T cells = experiment: CTL recognition of resting lymphohemopoietic cells, 6-hour cytotoxicity test; type: cell-based; conditions: cells loaded with peptide 10 μM
resting B cells = experiment: as above; type: cell-based; conditions: cells loaded with peptide 10 μM
[2] = tested on: A2K^b- and CD8×A2K^b transgenic mice; experiment: A2.1-restricted immunogenicity of synthetic peptides after immunization; cytotoxicity test of induced CTL on peptide-loaded T2A2K^b cells; type: in vivo, mouse; conditions: peptide immunization in IFA, in vitro stimulation, 4-hour cytotoxicity test
mature DC = experiment: CTL recognition of activated mature dendritic cells, 6-hour cytotoxicity test; type: cell-based; conditions: cells loaded with peptide 10 μM

LLGDLFGV [hdm2 81-88, oligopeptide, amino acid positions 81 to 88 of the hdm2 proto-oncoprotein]
EC50 (T2 cells; CTL line A2 81, E:T 10:1, 4-hour test, read-out: peptide concentration at half-maximal lysis of the target cells): 0.069 nM
EC50 (T2 cells; CTL line CD8×A2K^b 81, E:T 10:1, 4-hour test, read-out: peptide concentration at half-maximal lytic activity): 0.036 nM
lysis of peptide-loaded T2 cells by both hdm2 81-88-specific CTL lines (T2 cells; CTL lines A2 81 and CD8×A2 K^b 81, 4-hour test): lyzed efficiently
EC50 (T2 cells; I° CTL A2 81, 6-hour test, read-out: peptide concentration at half-maximal lysis of the target cells): 0.95 nM
absolute maximal lysis (T2 cells; I° CTL A2 81): 62%
EC50 (T2 cells; I° CTL CD8×A2 K^b 81, 6-hour test, read-out: peptide concentration at half-maximal lysis of the target cells): 0.2 nM
absolute maximal lysis (T2 cells; I° CTL CD8×A2 K^b 81): 100%
CTL lysis after loading with exogenous peptide [1]: reconstitute
CTL recognition after loading with exogenous peptide (PBMC): reconstituted
inhibition of the A2.1 binding of the competing peptide p53 264-272 (HLA-A2.1; 10 μg test peptide): 100%
A2.1-binding activity (in words) (HLA-A2.1): strongly binding
recognition of peptide-loaded EL4 cells by CTL induced by hdm2 81-88 (EL4 cells (H-2^b); CTL from immunized A2K^b- or CD8×A2K^b-transgenic mice, 2 μg peptide): not recognized
lytic activity of hdm2 81-88-reactive CTL lines on peptide-loaded EL4 cells (EL4 cells (H-2^b); CTL lines A2 81 and CD8×A2 K^b 81): no lytic activity at all
CTL recognition after loading with exogenous peptide (resting T cells): reconstituted
CTL recognition after loading with exogenous peptide (resting B cells): reconstituted
A2.1-restricted and peptide-specific CTL response [2]: demonstrated
CTL lysis after loading with exogenous peptide (mature DC): reconstituted

hdm2 33-41: synthetic hdm2 peptide, residues 33-41 (LLLKLLKSV; UniProt Q00987 33-41, looked up, fragment)
inhibition of the A2.1 binding of the competing peptide p53 264-272 (HLA-A2.1; 10 μg test peptide): 100%
A2.1-binding activity (in words) (HLA-A2.1): strongly binding
A2.1-restricted and peptide-specific CTL response [2]: demonstrated

hdm2 48-57: synthetic hdm2 peptide, residues 48-57 (YTMKEVLFYL; UniProt Q00987 48-57, looked up, fragment)
inhibition of the A2.1 binding of the competing peptide p53 264-272 (HLA-A2.1; 10 μg test peptide): 100%

hdm2 80-88: synthetic hdm2 peptide, residues 80-88; contaminated with hdm2 81-88 (DLLGDLFGV; UniProt Q00987 80-88, looked up, fragment)
recognition of HPLC-purified peptide by hdm2 81-88-specific CTL (T2 cells; HPLC fraction 23, T2 cells, CTL CD8×A2 K^b 81, E:T 20:1): cross-reactivity
inhibition of the A2.1 binding of the competing peptide p53 264-272 (HLA-A2.1; 10 μg test peptide): 100%
A2.1-binding activity (in words) (HLA-A2.1): strongly binding
A2.1-restricted and peptide-specific CTL response [2]: demonstrated

hdm2 101-110: intermediately binding synthetic hdm2 peptide, residues 101-110 (TMIYRNLVVV; UniProt Q00987 101-110, looked up, fragment)
A2.1-binding activity (in words) (HLA-A2.1): intermediately binding
A2.1-restricted and peptide-specific CTL response [2]: demonstrated

tyrosinase 369-377: A2.1-binding peptide tyrosinase 369-377, positive control [reference compound]
inhibition of the A2.1 binding of the competing peptide p53 264-272 (HLA-A2.1; 3 μg test peptide): 100%
inhibition of the A2.1 binding of the competing peptide p53 264-272 (HLA-A2.1; 10 μg test peptide): 100%
